Among the data in patent US7928231B2, “Thienopyrazoles” (priority 2003, dated 2011) are melting point and IC50 values, retold here.

Where a name gives a salt, the structure may show the parent alone.

Data set [1] has as its system IL-4 production from anti-CD3-stimulated murine splenocytes. Put plainly: Anti-CD3 stimulated IL-4 assay from murine splenocytes. To be noted: Mus musculus, Splenocyte, 72 h; BALB/c splenocytes, anti-CD3 stimulation, 3 days, IL-4 ELISA; read-out: IC50 IL-4 release inhibition- assay. It is filed as cell-based. The protocol: Anti-CD3 stimulated IL-4 Assay from Murine Splenocytes.
The tyrosine kinase ITK is involved in intracellular signaling events induced by several lymphocyte surface receptors. Since ITK deficient mice show an impairment in IL-4 production from T cells, a cell based assay for IL-4 production is used to measure the cellular potency of the ITK inhibitors of the present invention. In this assay the level of IL-4 is measured from the media of anti-CD3-stimulated murine splenocytes, and the ability of compounds of the present invention to inhibit this response is determined.
Spleens from the mouse strain BALB/c are isolated and used to prepare a suspension of mixed splenocytes. The spleens are homogenized with cell strainer (Falcon Cat#352350 and 5 ml syringe) in RPMI media. The mixture is spun down, and the pellets are suspended in 3 ml of Red Blood Cell Lysing Buffer (Sigma Cat#7757) and left for 10 minutes at room temperature. Cells are spun down again, and resuspended in RPMI with 10% FBS and passed through cell strainer. Total cell numbers are determined with hemocytometer.
Splenocytes are adjusted to a cell density of 10 million per ml of RPMI medium supplemented with 10% Foetal Bovine Serum (FBS) and 100 uls of the suspension plated out per well of a 96 round bottom plate. 50 uls of RPMI medium containing 4× the final concentration of test compound is added per well. For IC50 determination the following concentrations of compound are used. The starting concentration is 10 uM and 7 series of 1:3 dilutions are followed, and each compound concentration is set up in triplicate wells. 50 ul of 4× concentration are added. Cell cultures are then stimulated by addition of 50 ul of a 4 ug/ml solution of anti-CD3 antibody, (BD Bioscience Cat #553166) made up in RPMI plus 10% FBS media, and incubated in a 37° C. CO2 incubator for 3 days. At the end of the 3 day incubation, culture medium is taken and 50 uls used to assay IL-4 production by ELISA (IL-4 ELISA kit from R&D Systems, city. Cat #M4000 kit) according to the standard conditions described by the manufacturer.
IL-4 levels are plotted as a function of compound concentration. The concentration of compound resulting in 50% inhibition of IL-4, termed IC50(IL-4), is determined from the resulting curve.
Assay Procedure • 1. Add 100 ul of 1×10E7/ml mouse splenocytes in RPMI plus 10% FBS media to 96 well round bottom plates. • 2. Add 50 ul of Itk compounds (4× final concentration) in RPMI plus 10% FBS media • 3. Add 50 ul of 4 ug/ml anti-CD3 antibody in RPMI plus 10% FBS media • 4. Incubate at 37 c CO2 incubator for 3 days • 5. Transfer 150 ul culture media into fresh plate • 6. 50 ul of the media is subject to Elisa analysis (R & D Cat #M4000 kit) FlashPlate ITK Protocol for ITK Inhibition Determination

The target of data set [2] is T1, ITK (Homo sapiens, UniProt Q08881).
T1 construct: made in house
T1 sequence (Q08881 1-620): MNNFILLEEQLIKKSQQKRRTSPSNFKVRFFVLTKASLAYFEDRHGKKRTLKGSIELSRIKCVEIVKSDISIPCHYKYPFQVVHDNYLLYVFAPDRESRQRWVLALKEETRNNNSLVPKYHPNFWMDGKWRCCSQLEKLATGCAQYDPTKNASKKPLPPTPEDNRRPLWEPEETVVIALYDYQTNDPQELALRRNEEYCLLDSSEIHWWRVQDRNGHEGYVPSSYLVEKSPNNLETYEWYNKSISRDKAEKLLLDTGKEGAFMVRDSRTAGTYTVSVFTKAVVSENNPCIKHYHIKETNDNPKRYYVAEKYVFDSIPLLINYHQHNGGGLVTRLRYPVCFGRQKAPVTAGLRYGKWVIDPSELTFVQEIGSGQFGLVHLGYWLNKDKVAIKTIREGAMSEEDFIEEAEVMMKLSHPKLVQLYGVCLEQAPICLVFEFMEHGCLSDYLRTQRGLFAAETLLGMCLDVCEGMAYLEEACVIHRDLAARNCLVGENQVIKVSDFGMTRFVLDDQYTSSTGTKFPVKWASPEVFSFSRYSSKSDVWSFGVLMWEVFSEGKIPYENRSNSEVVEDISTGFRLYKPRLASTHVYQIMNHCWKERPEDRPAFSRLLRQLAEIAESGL
Put plainly: FlashPlate ITK protocol for ITK inhibition determination (ITK autophosphorylation, [γ-33P]ATP). It counts as biochemical. To be noted: MBP-tagged ITK, read-out: IC50 (enzyme inhibition)-. How it is done:
ITK kinase is produced with an N-terminal Maltose Binding Protein tag (MW=˜114 kDa) using a Baculovirus expression system. The transfer of radioactive [γ-^33P] phosphate from [γ-^33P]ATP to ITK during the autophosphorylation of ITK is measured by scintillation counting. Streptavidin-coated FlashPlate Plus™ 384 well microplates (PerkinElmer Life Sciences) are designed for in-plate radiometric assays. The interior of each well is permanently coated with a thin layer of scintillant and a covalently bound layer of Streptavidin. ITK is incubated with [γ-^33P]ATP, biotinylated anti-MBP antibody (Cell Signaling Technology™) and test compounds in a 384-well Streptavidin-coated FlashPlate. The biotinylated anti-MBP binds tightly to the MBP-tagged ITK and cross-links it to Streptavidin on the plate surface. Unreacted ^33P-ATP is washed away and ^33P-phosphorylated ITK is measured when the [γ-^33P] incorporated into ITK stimulates the scintillant on the well to emit light. Radioactivity is assessed in a Packard
TopCount scintillation counter. Reagents are pipetted and dispensed using Beckman Biomek robotic equipment. Test compounds (2 μl per well) are pre-diluted from 1 mM 100% dimethyl sulfoxide solutions into water containing 30% dimethyl sulfoxide to produce dose response curves (10 point curves from (final) 30 μM to ˜1 nM); all tests are performed in duplicate. Background binding is assessed by substituting the enzyme inhibitor EDTA (25 mM final concentration) for test compound and maximal binding is assessed by inclusion of assay buffer instead of compound. Test compounds are added to the wells first (2 μl) followed by 10 μl enzyme solution in assay buffer. After 30 minutes pre-incubation, all other reagents are added in a 10 μl volume. The final reagent concentrations/well are as follows: 20 nM enzyme, 0.25 μCi [γ-^33P]ATP, assay buffer: 20 mM HEPES (pH 7.5), 0.15 M NaCl, 3 mM MgCl2, 3 mM MnCl2, 0.01% Triton X-100, 1 mM DTT, 5% glycerol and 0.01% γ-globulin. The plate is incubated at room temperature (RT) for 60 minutes for the kinase reaction. The reaction is stopped with 20 μl of 50 mM EDTA and the biotinylated anti-MBP is allowed to bind to the ITK and the Streptavidin for a further 60 minutes at RT. The unbound reagents are washed away with 2×100 μl phosphate-buffered saline (PBS). Radioactivity is measured for 45 sec/well.

Take `O=C(c1cc2[nH]nc(-c3cc4cc(CO)ccc4[nH]3)c2s1)N1CCN(c2ccc(F)cc2)CC1`: the melting point fell in the range of 156 to 158 °C. `OC(c1ccc2cc(-c3n[nH]c4ccsc34)[nH]c2c1)(C1CC1)C1CC1` returned a melting point of 110 to 112 °C. As for `OC1CCCN(CCCOc2ccc3cc(-c4n[nH]c5cc(-c6ccccc6)sc45)[nH]c3c2)C1` (stereo not shown), the melting point is 213 to 216 °C. `c1ccc2[nH]c(-c3n[nH]c4ccsc34)nc2c1` [Example 1, 2-(1H-Thieno[3,2-c]pyrazol-3-yl)-1H-benzimidazole]: the IC50 was found to be 264 nM in data set [1] and 167 nM in data set [2]. The corresponding values for `COc1ccc2nc(-c3n[nH]c4ccsc34)[nH]c2c1` [Example 2, 6-Methoxy-2-(1H-thieno[3,2-c]pyrazol-3-yl)-1H-benzoimidazole] are 164 nM and 157 nM. Take `COc1ccc2nc(-c3n[nH]c4c3sc3ccccc34)[nH]c2c1` [Example 3, 3-(6-Methoxy-1H-benzimidazol-2-yl)-1H-benzo[4,5]thieno[3,2-c-]pyrazole]: the IC50 in data set [1] turned out to be 2900 nM; in data set [2], 86 nM. `c1cc2[nH]nc(-c3cc4cc(OCCCN5CCCCC5)ccc4[nH]3)c2s1` [Example 5, 5-(3-Piperidin-1-yl-propoxy)-2-(1H-thieno[3,2-c]pyrazol-3-yl)-indole]: the IC50 in data set [1] came out at 153 nM; in data set [2], 16.6 nM. Turning to `OC1CCN(CCCOc2ccc3cc(-c4n[nH]c5ccsc45)[nH]c3c2)CC1` [Example 6, 1-{3-[2-(1H-Thieno[3,2-c]pyrazol-3-yl)-1H-indol-6-yloxy]-propyl}-piperidin-4-ol], the IC50 amounted to 180 nM in data set [1] and 3.65 nM in data set [2]. The corresponding values for `c1cc2[nH]nc(-c3cc4ccc(OCCCN5CCCCC5)cc4[nH]3)c2s1` [Example 7, 6-(3-Piperidin-1-yl-propoxy)-2-(1H-thieno[3,2-c]pyrazol-3-yl)-1H-indole] are 163 nM and 1.89 nM. For the compound `OC1CCCN(CCCOc2ccc3cc(-c4n[nH]c5ccsc45)[nH]c3c2)C1` (stereo not shown) [Example 8, 1-{3-[2-(1H-Thieno[3,2-c]pyrazol-3-yl)-1H-indol-6-yloxy]-propyl}-piperidin-3-ol], the IC50 in data set [1] came to 11.3 nM; in data set [2], 1.62 nM. The corresponding values for `OCC1CCCN(CCCOc2ccc3cc(-c4n[nH]c5ccsc45)[nH]c3c2)C1` (stereo not shown) [Example 9, (1-{3-[2-(1H-Thieno[3,2-c]pyrazol-3-yl)-1H-indol-6-yloxy]-propyl}-piperidin-3-yl)-methanol] are 129 nM and 2.08 nM.

With `CCN1CCN(CCCOc2ccc3cc(-c4n[nH]c5ccsc45)[nH]c3c2)CC1` [Example 10, 6-[3-(4-Ethyl-piperazin-1-yl)-propoxy]-2-(1H-thieno[3,2-c]pyrazol-3-yl)-1H-indole], the values for the IC50 in data set [1] and in data set [2] were 289 nM and 2.94 nM, respectively. Take `CN(C)CCCOc1ccc2cc(-c3n[nH]c4ccsc34)[nH]c2c1` [Example 11, Dimethyl-{3-[2-(1H-thieno[3,2-c]pyrazol-3-yl)-1H-indol-6-yloxy]-propyl}-amine]: the IC50 in data set [2] came out at 24.2 nM. For `CCN(CC)CCCOc1ccc2cc(-c3n[nH]c4ccsc34)[nH]c2c1` [Example 12, Diethyl-{3-[2-(1H-thieno[3,2-c]pyrazol-3-yl)-1H-indol-6-yloxy]-propyl}-amine], in data set [2], the IC50 was 5.22 nM. Consider `C=CCN(CC=C)CCCOc1ccc2cc(-c3n[nH]c4ccsc34)[nH]c2c1` [Example 13, Diallyl-{3-[2-(1H-thieno[3,2-c]pyrazol-3-yl)-1H-indol-6-yloxy]-propyl}-amine], for which, in data set [2], the IC50 turned out to be 12.3 nM. The same measure, in the same setting: in the case of `OC1CCN(CCCOc2ccc3cc(-c4n[nH]c5ccsc45)[nH]c3c2)C1` (stereo not shown) [Example 14, 1-{3-[2-(1H-Thieno[3,2-c]pyrazol-3-yl)-1H-indol-6-yloxyl]-propyl}-pyrrolidin-3-ol] it was 15.1 nM. On to `CN(CCO)CCCOc1ccc2cc(-c3n[nH]c4ccsc34)[nH]c2c1` [Example 15, 2-(Methyl-{3-[2-(1H-thieno[3,2-c]pyrazol-3-yl)-1H-indol-6-yloxy]-propyl}-amino)-ethanol], for which, in data set [2], the IC50 stood at 3.26 nM. In the case of `OC1CCN(CCCOc2ccc3[nH]c(-c4n[nH]c5ccsc45)cc3c2)CC1` [Example 16, 1-{3-[2-(1H-Thieno[3,2-c]pyrazol-3-yl)-1H-indol-5-yloxy]-propyl}-piperidin-4-ol], the IC50 in data set [2] was found to be 40.9 nM. The same measure, in the same setting: in the case of `OC1CCCN(CCCOc2ccc3[nH]c(-c4n[nH]c5ccsc45)cc3c2)C1` (stereo not shown) [Example 17, 1-{3-[2-(1H-Thieno[3,2-c]pyrazol-3-yl)-1H-indol-5-yloxy]-propyl}-piperidin-3-ol] it was 76.3 nM; in that of `OCC1CCCN(CCCOc2ccc3[nH]c(-c4n[nH]c5ccsc45)cc3c2)C1` (stereo not shown) [Example 18, (1-{3-[2-(1H-Thieno[3,2-c]pyrazol-3-yl)-1H-indol-5-yloxy]-propyl}-piperidin-3-yl)-methanol], 41 nM.

In the case of `OC1CCN(CCCOc2ccc3[nH]c(-c4n[nH]c5ccsc45)cc3c2)C1` (stereo not shown) [Example 19, 1-{3-[2-(1H-Thieno[3,2-c]pyrazol-3-yl)-1H-indol-5-yloxy]-propyl}-pyrrolidin-3-ol], in data set [2], the IC50 was 45.7 nM.

Turning to `c1ccc2c(c1)sc1c(-c3nc4ccc(OCCCN5CCCCC5)cc4[nH]3)n[nH]c12` [Example 20, 3-(5-(3-Piperidin-1-yl-propoxy)-1H-Benzoimidazol-2-yl)-1H-benzo[4,5]thieno[3,2-c]pyrazole hydrochloride], the IC50 in data set [2] amounted to 112 nM.
